Key:
[1] = test system: S. aureus DSM 20231; test: fitness (endpoint OD595 vs no drug) (fraction); higher = more growth
Procedure, shortened: (§1)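 Bacterial fitness was scored as optical density at the stationary-phase transition relative to the robust mean of no-drug control wells. Scores are capped at 1. The growth data were OD595 readings every 30 min for 14 h at 37 °C, background-subtracted against the first reading, from 384-well plates inoculated at OD595 0.01 in TSB, LB Lennox or CY.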

[2] = test system: S. aureus Newman; test: as above
Procedure, shortened: as §1

[3] = test system: S. pneumoniae D39V; test: as above
Procedure, shortened: as §1

[4] = test system: B. subtilis 168; test: Bliss interaction score (quartile over a dose matrix) (fitness difference); higher = more antagonism (negative = synergy)
Procedure, shortened: (§2)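 The Bliss score is observed minus expected fitness, where expected fitness is the product of the single-drug fitness values inferred from the combination data. Fitness is the OD595 at the onset of stationary phase over the plate's robust no-drug mean, capped at 1. Scores are summarised by quartiles over technical, biological and donor/recipient replicates.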

[5] = test system: S. aureus DSM 20231; test: as above
Procedure, shortened: as §2

[6] = test system: S. aureus Newman; test: as above
Procedure, shortened: as §2

[7] = test system: S. pneumoniae D39V; test: as above
Procedure, shortened: as §2

[8] = first compound 0.125 µg/mL, partner 0.125 µg/mL
[9] = first compound 0.0625 µg/mL, partner 85.5 µg/mL
[10] = first compound 0.0625 µg/mL, partner 171 µg/mL
[11] = first compound 0.0625 µg/mL, partner 342 µg/mL
[12] = first compound 0.125 µg/mL, partner 171 µg/mL
[13] = first compound 0.125 µg/mL, partner 342 µg/mL
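Wherever Bliss interaction score (quartile over a dose matrix) is given: first quartile when negative (synergy) and third quartile when positive (antagonism).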
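Wherever fitness (endpoint OD595 vs no drug) is given: OD595 on entry to stationary phase over no-drug wells; at most 1.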

## CC1(C)S[C@@H]2[C@H](NC(=O)[C@H](N)c3ccc(O)cc3)C(=O)N2[C@H]1C(=O)O [Amoxicillin] + CCC[C@@H]1C[C@@H](C(=O)N[C@@H]([C@H]2O[C@H](SC)[C@H](O)[C@@H](O)[C@H]2O)[C@H](C)Cl)N(C)C1 [Clindamycin]
[1]; first compound 0.0625 µg/mL, partner 0.0625 µg/mL
  fitness: 0.132
[1]; first compound 0.0625 µg/mL, partner 0.125 µg/mL
  fitness: 0.0693
[1]; first compound 0.125 µg/mL, partner 0.0312 µg/mL
  fitness: 0.157
[1]; first compound 0.125 µg/mL, partner 0.0625 µg/mL
  fitness: 0.0589
[1]; [8]
  fitness: 0.0684
[1]; first compound 0.25 µg/mL, partner 0.0312 µg/mL
  fitness: 0.0508
[1]; first compound 0.25 µg/mL, partner 0.0625 µg/mL
  fitness: 0.038
[1]; first compound 0.25 µg/mL, partner 0.125 µg/mL
  fitness: 0.0621
[1]; first compound 0.5 µg/mL, partner 0.0312 µg/mL
  fitness: 0.0205
[1]; first compound 0.5 µg/mL, partner 0.0625 µg/mL
  fitness: 0.0091
[1]; first compound 0.5 µg/mL, partner 0.125 µg/mL
  fitness: 0.0231
[2]; first compound 0.0625 µg/mL, partner 0.0312 µg/mL
  fitness: 0.698
[2]; [8]
  fitness: 0.0978
[3]; first compound 0.0008 µg/mL, partner 0.0125 µg/mL
  fitness: 0.796
[3]; first compound 0.0008 µg/mL, partner 0.015 µg/mL, one replicate
  fitness: 0.962
[3]; first compound 0.0008 µg/mL, partner 0.025 µg/mL
  fitness: 0.519
[3]; first compound 0.0008 µg/mL, partner 0.03 µg/mL, one replicate
  fitness: 0.84
[3]; first compound 0.0008 µg/mL, partner 0.05 µg/mL
  fitness: 0.203
[3]; first compound 0.0008 µg/mL, partner 0.06 µg/mL, one replicate
  fitness: 0.557
[3]; first compound 0.0015 µg/mL, partner 0.0125 µg/mL
  fitness: 0.77
[3]; first compound 0.0015 µg/mL, partner 0.015 µg/mL
  fitness: 0.92
[3]; first compound 0.0015 µg/mL, partner 0.025 µg/mL
  fitness: 0.488
[3]; first compound 0.0015 µg/mL, partner 0.03 µg/mL
  fitness: 0.757
[3]; first compound 0.0015 µg/mL, partner 0.05 µg/mL
  fitness: 0.186
[3]; first compound 0.0015 µg/mL, partner 0.06 µg/mL
  fitness: 0.539
[3]; first compound 0.003 µg/mL, partner 0.0125 µg/mL
  fitness: 0.77
[3]; first compound 0.003 µg/mL, partner 0.015 µg/mL
  fitness: 0.872
[3]; first compound 0.003 µg/mL, partner 0.025 µg/mL
  fitness: 0.482
[3]; first compound 0.003 µg/mL, partner 0.03 µg/mL
  fitness: 0.726
[3]; first compound 0.003 µg/mL, partner 0.05 µg/mL
  fitness: 0.186
[3]; first compound 0.003 µg/mL, partner 0.06 µg/mL
  fitness: 0.509
[3]; first compound 0.006 µg/mL, partner 0.015 µg/mL, one replicate
  fitness: 0.505
[3]; first compound 0.006 µg/mL, partner 0.03 µg/mL, one replicate
  fitness: 0.385
[3]; first compound 0.006 µg/mL, partner 0.06 µg/mL, one replicate
  fitness: 0.298
[4]
  Bliss interaction score: -0.0391
[5]
  Bliss interaction score: 0.0324
[6]
  Bliss interaction score: -0.0717
[7]
  Bliss interaction score: 0.151

## CC1(C)S[C@@H]2[C@H](NC(=O)[C@H](N)c3ccc(O)cc3)C(=O)N2[C@H]1C(=O)O [Amoxicillin] + CCN(CC)CCOC(=O)c1ccc(N)cc1 [Procaine]
[1]; [9]
  fitness: 0.455
[1]; [10]
  fitness: 0.523
[1]; [11]
  fitness: 0.523
[1]; first compound 0.125 µg/mL, partner 85.5 µg/mL
  fitness: 0.423
[1]; [12]
  fitness: 0.478
[1]; [13]
  fitness: 0.495
[1]; first compound 0.25 µg/mL, partner 85.5 µg/mL
  fitness: 0.0255
[1]; first compound 0.5 µg/mL, partner 85.5 µg/mL, one replicate
  fitness: 0.0288
[1]; first compound 0.5 µg/mL, partner 171 µg/mL, one replicate
  fitness: 0.0239
[1]; first compound 0.5 µg/mL, partner 342 µg/mL, one replicate
  fitness: 0.0199
[2]; [9]
  fitness: 0.862
[2]; [10]
  fitness: 0.875
[2]; [11]
  fitness: 0.861
[2]; [12]
  fitness: 0.847
[2]; [13]
  fitness: 0.861
[2]; first compound 0.25 µg/mL, partner 171 µg/mL
  fitness: 0.841
[2]; first compound 0.25 µg/mL, partner 342 µg/mL
  fitness: 0.811
[3]; first compound 0.0008 µg/mL, partner 85.5 µg/mL
  fitness: 1
[3]; first compound 0.0008 µg/mL, partner 171 µg/mL
  fitness: 0.989
[3]; first compound 0.0008 µg/mL, partner 342 µg/mL
  fitness: 0.942
[3]; first compound 0.0015 µg/mL, partner 85.5 µg/mL
  fitness: 0.985
[3]; first compound 0.0015 µg/mL, partner 171 µg/mL
  fitness: 0.971
[3]; first compound 0.0015 µg/mL, partner 342 µg/mL
  fitness: 0.987
[3]; first compound 0.003 µg/mL, partner 85.5 µg/mL
  fitness: 0.918
[3]; first compound 0.003 µg/mL, partner 171 µg/mL
  fitness: 0.93
[3]; first compound 0.003 µg/mL, partner 342 µg/mL
  fitness: 0.992
[3]; first compound 0.006 µg/mL, partner 85.5 µg/mL, one replicate
  fitness: 0.536
[3]; first compound 0.006 µg/mL, partner 171 µg/mL, one replicate
  fitness: 0.524
[3]; first compound 0.006 µg/mL, partner 342 µg/mL, one replicate
  fitness: 0.519
[4]
  Bliss interaction score: -0.036
[5]
  Bliss interaction score: -0.0798
[6]
  Bliss interaction score: -0.0462
[7]
  Bliss interaction score: 0.0262
